Key:
P2X7 = biological target: T1, P2X7 (Homo sapiens, UniProt Q99572); assay: ATP-induced YO-PRO-1 dye uptake in HEK-hP2X7 cells; assay type: cell-based
T1 construct: expressed in transfected cells
T1 sequence (Q99572 1-595): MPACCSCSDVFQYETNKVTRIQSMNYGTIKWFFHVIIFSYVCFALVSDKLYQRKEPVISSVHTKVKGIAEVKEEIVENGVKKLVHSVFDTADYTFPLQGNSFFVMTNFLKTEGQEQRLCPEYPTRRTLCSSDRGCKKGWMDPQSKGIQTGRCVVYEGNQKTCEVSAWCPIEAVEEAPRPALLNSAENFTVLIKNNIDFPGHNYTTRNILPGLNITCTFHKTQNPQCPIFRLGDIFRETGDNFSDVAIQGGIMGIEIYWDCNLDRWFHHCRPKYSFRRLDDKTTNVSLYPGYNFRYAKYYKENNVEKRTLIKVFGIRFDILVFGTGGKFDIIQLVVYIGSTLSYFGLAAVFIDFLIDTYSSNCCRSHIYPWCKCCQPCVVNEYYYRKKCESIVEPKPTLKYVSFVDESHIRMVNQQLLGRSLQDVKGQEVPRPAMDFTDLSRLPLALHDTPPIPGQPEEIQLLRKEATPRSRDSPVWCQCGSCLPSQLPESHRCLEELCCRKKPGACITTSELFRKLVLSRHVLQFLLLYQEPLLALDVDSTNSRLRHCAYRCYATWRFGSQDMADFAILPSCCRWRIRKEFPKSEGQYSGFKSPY
Method: HEK-hP2X7 or HEK-hP2X4 cells were plated at 2.5 × 10^4 cells per well (100 µL volume) the day before experiments into poly-D-lysine (Merck Millipore) coated 96-well plates (NUNC, Fisher Scientific #167-008). The membrane impermeant dye YO-PRO-1 iodide (Life Technologies, Fisher Scientific) was used at a final concentration of 2 µM in low divalent buffer (145 mM NaCl, 5 mM KCl, 0.2 mM CaCl2, 13 mM glucose, 10 mM HEPES, pH 7.3, osm 300–310). Media were removed from the plate, and 90 µL of YO-PRO-1 buffer was added per well. Plates were warmed to 37 °C for 5 min before recording. Data was acquired on a Flexstation 3 plate reader (Molecular Devices) using excitation wavelength 490 nm, emission wavelength 520 nm, and six reads per well (PMT medium). […] […] Pipette height was set to 80 µL and the rate of injection was 4.
YO-PRO-1 dye uptake assay data is plotted as a percentage of control where control responses are measured in the absence of plant extract. Cell viability data is plotted as a percentage of control or background-corrected fluorescence data. Concentration–response graphs were plotted using GraphPad Prism v6 with a non-linear regression fit (variable slope). IC50 values were generated from collated datasets from a minimum of three independent experiments. Statistical differences were determined by one-way ANOVA statistical tests performed using GraphPad Prism v6 with Dunnett’s multiple comparison post hoc test. Significance was taken as P ≤ 0.05.
We acquired a natural product library (Set IV) containing 419 compounds from NCI DTP and tested these on P2X7 responses using a YO-PRO-1 dye uptake in HEK293 cells stably expressing human P2X7 (HEK-hP2X7). […] This allowed us to assess for any immediate effect of the injected compound, and secondly, it allowed for any potential negative modulators to be pre-incubated with P2X7.

hP2X7 = biological target: T2, hP2X7 (Homo sapiens, UniProt Q99572); assay: Whole-cell patch-clamp electrophysiology in HEK-hP2X7 cells; assay type: cell-based
T2 sequence (Q99572 1-595): T1 sequence (Q99572 1-595)
Method: Stably expressing HEK-hP2X7 cells were plated onto 13-mm glass coverslips 24 h prior to use. Membrane currents were recorded in the whole-cell patch-clamp configuration using an EPC10 amplifier (HEKA Elektronik) and borosilicate glass electrodes (TF-150 World Precision Instruments), resistance […] when filled with standard internal solution (145 mM NaCl, 10 mM HEPES, 10 mM EGTA, pH 7.3). Cells were voltage-clamped at − 60 mV, and dialysis of intracellular contents was performed for 1 min prior to experimental procedures. Cells were continuously perfused by gravity feed with standard divalent buffer solution (145 mM NaCl, 5 mM KCl, 2 mM CaCl2, 1 mM MgCl2, 13 mM glucose, 10 mM HEPES, pH 7.3) prior to seal formation, and low divalent buffer solution was used for agonist and PAM application. Agonists were applied using a computer-controlled fast-flow system (RSC-160; Bio-Logic Scientific Instruments) with the perfusion capillaries placed in close proximity to the cell under investigation.
(§1) Fig. 6 Dioscin enhances P2X7-dependent pore formation and potentiates channel opening. A Dioscorea nipponica (organic) plant extract (30 µg/mL) increased ATP-dependent YO-PRO-1 iodide uptake. AZ10606120 (10 µM, grey bars) was added to block hP2X7. B YO-PRO-1 uptake following a co-stimulation of HEK-hP2X7 cells with 200 µM ATP ± the named compounds in the presence or absence of AZ10606120. YO-PRO-1 uptake was quantified between 50 and 300 s (n = 5). C Whole-cell patch-clamp recordings were performed at room temperature. Cells were voltage-clamped at − 60 mV, and responses to a 5-s stimulation of ATP (100 µM) followed by a 5-s stimulation of ATP (100 µM) + dioscin/diosgenin (10 µM) were measured from HEK-hP2X7 cells. Representative traces are shown. D Summary of normalised current amplitudes represented as a fold change compared to ATP responses in the absence of dioscin/diosgenin (n = 10–18 cells). E Concentration response to ATP in the presence of dioscin (10 µM, green) or vehicle (DMSO, black) using YO-PRO-1 uptake assay in HEK-hP2X7 and F HEK-293 cells. […]

HEK293 cells = assay: Propidium iodide staining of HEK293 cells (membrane permeabilisation); assay type: cell-based, human
Method: Fig. 6 Dioscin enhances P2X7-dependent pore formation and potentiates channel opening. A Dioscorea nipponica (organic) plant extract (30 µg/mL) increased ATP-dependent YO-PRO-1 iodide uptake. AZ10606120 (10 µM, grey bars) was added to block hP2X7. B YO-PRO-1 uptake following a co-stimulation of HEK-hP2X7 cells with 200 µM ATP ± the named compounds in the presence or absence of AZ10606120. YO-PRO-1 uptake was quantified between 50 and 300 s (n = 5). C Whole-cell patch-clamp recordings were performed at room temperature. Cells were voltage-clamped at − 60 mV, and responses to a 5-s stimulation of ATP (100 µM) followed by a 5-s stimulation of ATP (100 µM) + dioscin/diosgenin (10 µM) were measured from HEK-hP2X7 cells. Representative traces are shown. D Summary of normalised current amplitudes represented as a fold change compared to ATP responses in the absence of dioscin/diosgenin (n = 10–18 cells). E Concentration response to ATP in the presence of dioscin (10 µM, green) or vehicle (DMSO, black) using YO-PRO-1 uptake assay in HEK-hP2X7 and F HEK-293 cells. […] H HEK-293 cells were treated with dioscin or CK (10 µM) for 10 min and stained with propidium iodide to reveal permeabilised cells. Images taken with EVOS microscope

[1] = system: non-transfected HEK-293 cells; assay: YO-PRO-1 dye uptake in non-transfected HEK-293 cells; assay type: cell-based, human; conditions: 10 µM, in the presence of ATP
Method: HEK-hP2X7 or HEK-hP2X4 cells were plated at 2.5 × 10^4 cells per well (100 µL volume) the day before experiments into poly-D-lysine (Merck Millipore) coated 96-well plates (NUNC, Fisher Scientific #167-008). The membrane impermeant dye YO-PRO-1 iodide (Life Technologies, Fisher Scientific) was used at a final concentration of 2 µM in low divalent buffer (145 mM NaCl, 5 mM KCl, 0.2 mM CaCl2, 13 mM glucose, 10 mM HEPES, pH 7.3, osm 300–310). Media were removed from the plate, and 90 µL of YO-PRO-1 buffer was added per well. Plates were warmed to 37 °C for 5 min before recording. Data was acquired on a Flexstation 3 plate reader (Molecular Devices) using excitation wavelength 490 nm, emission wavelength 520 nm, and six reads per well (PMT medium). Compounds or plant extracts at 10X final concentration were automatically injected at 30 s, and then, ATP was automatically injected at 90 s from a 96-well V-bottomed drug plate (Greiner). This enabled cells to be pre-treated with compounds/plant extracts for 60 s before the agonist was injected. […]
Fig. 6 Dioscin enhances P2X7-dependent pore formation and potentiates channel opening. […] YO-PRO-1 uptake was quantified between 50 and 300 s (n = 5). […] Cells were voltage-clamped at − 60 mV, and responses to a 5-s stimulation of ATP (100 µM) followed by a 5-s stimulation of ATP (100 µM) + dioscin/diosgenin (10 µM) were measured from HEK-hP2X7 cells. […]

HEK-293 cells = assay: Cell viability assay (AlamarBlue) in non-transfected HEK-293 cells; assay type: cell-based, human; conditions: 10 µM, 24 h
Method: Cells were plated at 2 × 10^4 cells/well in Nunc 96-well plates (Fisher Scientific #167-008) 24 h prior to stimulation with ATP 500 µM or 3 mM in combination with identified positive or negative crude plant extracts, respectively, or with purified compounds (10 µM) for 24 h. Following incubation, resazurin (0.1 mg/mL in PBS, Sigma-Aldrich) was added to cells for 2 h at 37 °C and fluorescence was measured on a Flexstation 3 plate reader (excitation 570 nm; emission 600 nm).
as §1, with “cells).” for “cells). E Concentration response to ATP in the presence of dioscin (10 µM, green) or vehicle (DMSO, black) using YO-PRO-1 uptake assay in HEK-hP2X7 and F HEK-293 cells.”

[2] = Cytotoxicity of purified glycoside (data not shown); assay type: cell-based

In the case of `C[C@@H]1CC[C@@]2(OC1)O[C@H]1C[C@H]3[C@@H]4CC=C5C[C@@H](O[C@@H]6O[C@H](CO)[C@@H](O[C@@H]7O[C@@H](C)[C@H](O)[C@@H](O)[C@H]7O)[C@H](O)[C@H]6O[C@@H]6O[C@@H](C)[C@H](O)[C@@H](O)[C@H]6O)CC[C@]5(C)[C@H]4CC[C@]3(C)[C@H]1[C@@H]2C` [Dioscin, dioscin], the “Sensitivity of the potentiated ATP response to P2X7 antagonist AZ10606120” value (P2X7; AZ10606120 10 µM) is reported as “could be reduced with AZ10606120”, the “Effect on YO-PRO-1 dye uptake with 200 µM ATP” value (P2X7; co-stimulation with 200 µM ATP) is reported as “able to enhance YO-PRO-1 dye uptake” and the “Effect on ATP concentration–response curve” value (P2X7; compound 10 µM) is reported as “increase in the maximum response with no leftward shift”. For the same compound, the “Effect on P2X7 responses” value (P2X7; purified glycosides/aglycone from potentiating extracts) was “could effectively potentiate P2X7 responses”, the “Potentiation of hP2X7 ion channel opening” value (hP2X7; 10 µM with ATP 100 µM, 5-s application, −60 mV) was “could potentiate hP2X7 ion channel opening” and the “Ion channel opening by compound alone” value (hP2X7; short 5-s application) was “not inducing ion channel opening itself”. For the same compound, the “Application time after which membrane permeabilisation was observed” value (HEK293 cells) was > 10 min, the Propidium iodide staining (HEK293 cells; 10 µM, within 10 min of addition) was “induce propidium iodide staining” and the “YO-PRO-1 dye uptake in non-transfected cells” value [1] was “increase YO-PRO-1 dye uptake in non-transfected HEK-293 cells in the presence of ATP”. For the same compound, the “Cell death in non-transfected HEK-293 cells” value (HEK-293 cells) was “induce cell death”.

With `CC1(C)CC[C@]2(C(=O)O)CC[C@]3(C)C(=CC[C@@H]4[C@@]5(C)CC[C@H](O[C@@H]6O[C@H](C(=O)O)[C@@H](O)[C@H](O[C@@H]7OC[C@@H](O)[C@H](O)[C@H]7O)[C@H]6O)C(C)(C)[C@@H]5CC[C@]43C)[C@@H]2C1` [Momordin Ic, momordin Ic] the Cytotoxicity [2] was “high level of cytotoxicity”.

— paper PMC12062478, “Screening herbal and natural product libraries to aid discovery of novel allosteric modulators of human P2X7” (Purinergic Signalling, 2024)
